The text below walks through data of patent publication US8877799B2, “Inorganic salt complexes of vildagliptin” (Egis Gyogyszergynar Nyilvanosan Muekoedoe Reszvenytarsasag, priority 2009, dated 2014).

The conditions of data set [1]: in water, after three days; pages 44 to 45 of WO 2007019255; cited from earlier work.
A short description of another data set: compressibility. The class given is physicochemical.

On to `N#C[C@@H]1CCCN1C(=O)CNC12CC3CC(CC(O)(C3)C1)C2` [vildagliptin base, 1-[2-(3-hydroxyadamant-1-yl-amino)acetyl]pyrrolidin-(2S)-carbonitrile], for which the active ingredient detectable in data set [1] is recorded as 7.5%. For “Vildagliptin Calcium(II)-Chloride Trihydrate Complex (1:1:3)”, in the data set “compressibility”, the “compressibility compared with vildagliptin base” value is “compressed significantly more preferably than the vildagliptin base”.
